Patent publication US20260295053A1, “COMPOUNDS FOR DEGRADATION AND INHIBITION OF KRAS (G12D) PROTEIN” (Shenzhen Ionova Life Science Co., Ltd., priority 2023, published 2026)

Key:
[1] = target: T1, KRAS (G12D) (Homo sapiens, UniProt P01116, G12D); experiment: KRAS (G12D) cellular degradation assay in AsPC-1 cells; type: cell-based; settings: 24 hours, antibody fluorescence (Odyssey CLX), DC50 half-maximal degradation concentration
T1 construct: in-cell western with KRAS G12D antibody after 24 h
Method in brief: (§1)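 AsPC-1 cells were seeded at 22,000/well for degradation and 3,500/well for proliferation. Compounds in 1:3 dilutions ([…] to 1.5 nM final) ran 24 h for degradation, read by in-cell immunofluorescence of KRAS G12D normalised to β-actin, and 6 days for proliferation (CellTiter Glo luminescence). DC50/IC50 came from dose-response fits.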

[2] = system: AsPC-1 cells; experiment: AsPC-1 cell proliferation assay (CellTiter Glo); type: cell-based; settings: 6 days
Method in brief: as §1

T1 sequence (P01116 1-188 isoform P01116-2 G12D): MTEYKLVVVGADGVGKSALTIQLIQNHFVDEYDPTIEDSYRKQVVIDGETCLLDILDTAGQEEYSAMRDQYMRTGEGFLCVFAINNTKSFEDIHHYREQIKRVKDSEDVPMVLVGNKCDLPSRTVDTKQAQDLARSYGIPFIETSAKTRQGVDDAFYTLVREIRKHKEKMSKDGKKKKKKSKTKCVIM

| DC50 [1] [nM] | IC50 ([2]; Homo sapiens, ASPC1, 144 h) [nM] | IC50 [2] [nM] | SMILES |
| --- | --- | --- | --- |
| < 10 | < 10 |  | Cc1ncsc1-c1ccc([C@@H](NC(=O)[C@@H]2C[C@@H](O)CN2C(=O)[C@H](C(C)C)n2cc(-c3ccc(COc4c(-c5c(C)c(F)cc6[nH]ncc56)c(C5CC5)cc5c(N(C)[C@H]6CCNC6)nc(OC[C@H]6CCCO6)nc45)cc3)nn2)[C@H](C)O)cc1 [Example 208, (2S,4R)-1-((2S)-2-(4-(4-(((6-cyclopropyl-7-(6-fluoro-5-methyl-1H-indazol-4-yl)-4-(methyl((S)-pyrrolidin-3-yl)amino)-2-(((R)-tetrahydrofuran-2-yl)methoxy)quinazolin-8-yl)oxy)methyl)phenyl)-1H-1,2,3-triazol-1-yl)-3-methylbutanoyl)-4-hydroxy-N-((1R,2S)-2-hydroxy-1-(4-(4-methylthiazol-5-yl)phenyl)propyl)pyrrolidine-2-carboxamide] |
| < 10 | < 10 |  | CCn1nccc1-c1ccc([C@H](CO)NC(=O)[C@@H]2C[C@@H](O)CN2C(=O)[C@H](C(C)C)n2cc(-c3ccc(COc4c(-c5c(C)c(F)cc6[nH]ncc56)c(C5CC5)cc5c(N6C[C@@H]7C[C@H]6CN7)nc(OC6CC7COCC7C6)nc45)cc3)nn2)cc1 (stereo partly drawn) [Example 104, (2S,4R)-1-((2S)-2-(4-(4-(((4-((1S,4S)-2,5-diazabicyclo[2.2.1]heptan-2-yl)-6-cyclopropyl-7-(6-fluoro-5-methyl-1H-indazol-4-yl)-2-((hexahydro-1H-cyclopenta[c]furan-5-yl)oxy)quinazolin-8-yl)oxy)methyl)phenyl)-1H-1,2,3-triazol-1-yl)-3-methylbutanoyl)-N—((R)-1-(4-(1-ethyl-1H-pyrazol-5-yl)phenyl)-2-hydroxyethyl)-4-hydroxypyrrolidine-2-carboxamide] |
| < 10 | < 10 |  | CO[C@@H](C)COc1nc(N(C)[C@H]2CCNC2)c2cc(C3CCC3)c(-c3c(C)c(F)cc4[nH]ncc34)c(OCc3ccc(-c4cn([C@H](C(=O)N5C[C@H](O)C[C@H]5C(=O)N[C@H](c5ccc(-c6scnc6C)cc5)C(C)O)C(C)C)nn4)cc3)c2n1 (stereo in doubt) [Example 142, (2S,4R)-1-((2S)-2-(4-(4-(((6-cyclobutyl-7-(6-fluoro-5-methyl-1H-indazol-4-yl)-2-((S)-2-methoxypropoxy)-4-(methyl((S)-pyrrolidin-3-yl)amino)quinazolin-8-yl)oxy)methyl)phenyl)-1H-1,2,3-triazol-1-yl)-3-methylbutanoyl)-4-hydroxy-N-((1R,2R)-2-hydroxy-1-(4-(4-methylthiazol-5-yl)phenyl)propyl)pyrrolidine-2-carboxamide] |
| < 10 | < 10 |  | CCn1nccc1-c1ccc([C@H](CO)NC(=O)[C@@H]2C[C@@H](O)CN2C(=O)[C@H](C(C)C)n2cc(-c3ccc(COc4c(-c5c(C)c(F)cc6[nH]ncc56)c(C5CC5)cc5c(N6C[C@@H]7C[C@H]6CN7)nc(N6CCC(OC)C6)nc45)cc3)nn2)cc1 (stereo partly drawn) [Example 112, (2S,4R)-1-((2S)-2-(4-(4-(((4-((1S,4S)-2,5-diazabicyclo[2.2.1]heptan-2-yl)-6-cyclopropyl-7-(6-fluoro-5-methyl-1H-indazol-4-yl)-2-(3-methoxypyrrolidin-1-yl)quinazolin-8-yl)oxy)methyl)phenyl)-1H-1,2,3-triazol-1-yl)-3-methylbutanoyl)-N—((R)-1-(4-(1-ethyl-1H-pyrazol-5-yl)phenyl)-2-hydroxyethyl)-4-hydroxypyrrolidine-2-carboxamide] |
| < 10 | < 10 |  | CCn1nccc1-c1ccc([C@H](CO)NC(=O)[C@@H]2C[C@@H](O)CN2C(=O)[C@H](C(C)C)n2cc(-c3ccc(COc4c(-c5c(C)c(F)cc6[nH]ncc56)c(C5CC5)cc5c(N6C[C@@H]7C[C@H]6CN7)nc(OCC6COC7OCCC67)nc45)cc3)nn2)cc1 (stereo partly drawn) [Example 51, (2S,4R)-1-((2S)-2-(4-(4-(((4-((1S,4S)-2,5-diazabicyclo[2.2.1]heptan-2-yl)-6-cyclopropyl-7-(6-fluoro-5-methyl-1H-indazol-4-yl)-2-((hexahydrofuro[2,3-b]furan-3-yl)methoxy)quinazolin-8-yl)oxy)methyl)phenyl)-1H-1,2,3-triazol-1-yl)-3-methylbutanoyl)-N—((R)-1-(4-(1-ethyl-1H-pyrazol-5-yl)phenyl)-2-hydroxyethyl)-4-hydroxypyrrolidine-2-carboxamide] |
| < 10 |  | < 10 | CCn1nccc1-c1ccc([C@H](CO)NC(=O)[C@@H]2C[C@@H](O)CN2C(=O)[C@H](C(C)C)n2cc(-c3ccc(COc4c(-c5c(C)c(F)cc6[nH]ncc56)c(C5CC5)cc5c(N6CCNCC[C@H]6C)nc(OC[C@H](C)OC)nc45)cc3)nn2)cc1 [Example 178, (2S,4R)-1-((2S)-2-(4-(4-(((6-cyclopropyl-7-(6-fluoro-5-methyl-1H-indazol-4-yl)-2-((S)-2-methoxypropoxy)-4-((R)-7-methyl-1,4-diazepan-1-yl)quinazolin-8-yl)oxy)methyl)phenyl)-1H-1,2,3-triazol-1-yl)-3-methylbutanoyl)-N—((R)-1-(4-(1-ethyl-1H-pyrazol-5-yl)phenyl)-2-hydroxyethyl)-4-hydroxypyrrolidine-2-carboxamide] |
| < 10 | < 10 |  | CCn1nccc1-c1ccc([C@@H](NC(=O)[C@@H]2C[C@@H](O)CN2C(=O)[C@H](C(C)C)n2cc(-c3ccc(COc4c(-c5c(C)c(F)cc6[nH]ncc56)c(C5CC5)cc5c(N6C[C@@H]7C[C@H]6CN7)nc(OC6CC7(CCOCC7)C6)nc45)cc3)nn2)[C@H](C)O)cc1 [Example 113, (2S,4R)-1-((2S)-2-(4-(4-(((2-((7-oxaspiro[3.5]nonan-2-yl)oxy)-4-((15,45)-2,5-diazabicyclo[2.2.1]heptan-2-yl)-6-cyclopropyl-7-(6-fluoro-5-methyl-1H-indazol-4-yl)quinazolin-8-yl)oxy)methyl)phenyl)-1H-1,2,3-triazol-1-yl)-3-methylbutanoyl)-N-((1R,2S)-1-(4-(1-ethyl-1H-pyrazol-5-yl)phenyl)-2-hydroxypropyl)-4-hydroxypyrrolidine-2-carboxamide] |
| < 10 | < 10 |  | CO[C@@H](C)COc1nc(N2CCNCC[C@H]2C)c2cc(C3CC3)c(-c3c(C)c(F)cc4[nH]ncc34)c(OCc3ccc(-c4cn([C@H](C(=O)N5C[C@H](O)C[C@H]5C(=O)N[C@@H](CO)c5ccc(-c6scnc6C)cc5)C(C)C)nn4)cc3)c2n1 [Example 189, (2S,4R)-1-((2S)-2-(4-(4-(((6-cyclopropyl-7-(6-fluoro-5-methyl-1H-indazol-4-yl)-2-((S)-2-methoxypropoxy)-4-((R)-7-methyl-1,4-diazepan-1-yl)quinazolin-8-yl)oxy)methyl)phenyl)-1H-1,2,3-triazol-1-yl)-3-methylbutanoyl)-4-hydroxy-N—((R)-2-hydroxy-1-(4-(4-methylthiazol-5-yl)phenyl)ethyl)pyrrolidine-2-carboxamide] |
| < 10 | < 10 |  | CO[C@@H](C)COc1nc(N2CCCNCC2)c2cc(C3CC3)c(-c3c(C)c(F)cc4[nH]ncc34)c(OCc3ccc(-c4cn([C@H](C(=O)N5C[C@H](O)C[C@H]5C(=O)N[C@@H](CO)c5ccc(-c6scnc6C)cc5)C(C)C)nn4)cc3)c2n1 [Example 179, (2S,4R)-1-((2S)-2-(4-(4-(((6-cyclopropyl-4-(1,4-diazepan-1-yl)-7-(6-fluoro-5-methyl-1H-indazol-4-yl)-2-((S)-2-methoxypropoxy)quinazolin-8-yl)oxy)methyl)phenyl)-1H-1,2,3-triazol-1-yl)-3-methylbutanoyl)-4-hydroxy-N—((R)-2-hydroxy-1-(4-(4-methylthiazol-5-yl)phenyl)ethyl)pyrrolidine-2-carboxamide] |
